Peptide text beside a SMILES is read from it.
Assays:
[1] = tested on: Cerebellar granule neuron (CGN) cultures; test: Stimulation of neurite outgrowth from cerebellar granule neurons in vitro; assay type: cell-based, rat; details: 24 h treatment of CGN cultures
Source text: Cerebellar granule neuron (CGN) cultures were obtained from 3-4-day-old Wistar rats (Charles River, Sulzfeld, Germany, or Moellegaard, Denmark) as previously described by Schousboe et al. (1989). Briefly, the cerebella were dissected, cleared of meninges and blood vessels, chopped, and trypsinized. The neurons were washed in the presence of DNAse 1 and soybean trypsin inhibitor (Sigma), and cellular debris was pelleted by centrifugation; the cells resuspended and then plated on poly-L-lysine (PLL; Sigma)-coated or uncoated microtiter plates in Neurobasal medium supplemented with 4% (w/v) bovine serum albumin (BSA), 2% (v/v) B27, 1% (v/v) glutamax, 100 U/ml penicillin, 100 gi/ml streptomycin, 4.5 g D-glucose/L (Sigma) 0.25% (v/v) sodium pyruvate, and 2% (v/v) 1 M HEPES (Gibco BRL).

Primary cultures of CGN = test: Survival of CGN induced to undergo apoptosis (low KCl) in vitro; assay type: cell-based, rat; details: apoptosis induced by reducing KCl to 5 mM, two days
Protocol: Primary cultures of CGN were plated at a density of 100 000 cells/cm^2 on poly-L-lysine coated 8-well permanox slides in Neurobasal-A medium (Gibco BRL) supplemented with 2% (v/v) B27, 0.5% (v/v) glutamax, 100 units/mL penicillin, 100 μg/mL streptomycin and KCl, making the final concentration of KCl in the medium 40 mm, Twenty-four hours after plating, Ara-C (Sigma-Aldrich) was added to a final concentration of 10 μm to avoid proliferation of glial cells, after which the neurons were allowed to differentiate for a further 6 days at 37° C. Apoptotic cell death was induced by washing twice and changing the medium to Basal Medium Eagle (BME; Gibco BRL) supplemented with 1% (v/v) glutamine, 100 U/mL, penicillin and 100 μg/mL streptomycin, 3.5 g d-glucose/L and 1% (v/v) sodium pyruvate (Gibco BRL) together with various concentrations of peptide. Thereby the concentration of potassium in the cultures was reduced to 5 mm KCl (D'Mello et al. 1993). Two days after induction of apoptosis, the cells were fixed with 4% (v/v) formaldehyde and stained with Hoechst 33258 as described for the survival assay employing hippocampal neurons.

[2] = tested on: human erythroleukemia cells TF-1; test: Proliferation of TF-1 cells (BrdU incorporation ELISA); assay type: cell-based; details: for stimulation of haemopoietic cell proliferation (general conclusion): no concentration stated
Protocol: Evaluation of the effect of four EPO-derived peptides on cell proliferation was performed using a TF-1 cell line. The TF-1 cell line was established from sample from patient with severe pancytopenia (human erythroleukemia). The growth of these cells is dependent of the presence of the granulocyte-macrophage colony-stimulating factor (GM-SCF). The TF-1 cells were grown in Dulbecco's Modified Eagle Medium (DMEM) supplemented with 10% (v/v) heat inactivated foetal calf serum (FCS), 2 mM GlutaMAX, penicillin (100 U/ml) and streptomycin (100 μg/ml), 10 mM HEPES, 1 mM sodium pyruvate, 1% fungizone. The growth medium was supplemented with 2 ng/ml GM-CSF. Cell proliferation was determined using a Biotrak ELISA system, version 2 (Amersham Biosciences, UK). The procedure is based on measurement of the levels of 5-bromo-2′-deoxyuridine (BrdU) incorporation during DNA synthesis in proliferating cells. Briefly, passaged cells were washed once with starving medium (culturing medium without GM-CSF) then plated in 96-well Nuclon culture microplates (Nuno, Denmark) at a density of 5000 cells/well and grown in starving medium containing 0.008, 0.04, 0.2, 1.0, 5.0, 25 and 50 μg/ml of the tested compounds. As a positive control the human recombinant erythropoietin (EPO) (Calbiochem, Denmark) was used in a concentration of 2.0 ng/ml. TF-1 cells were allowed to grow in the presence of peptides for 24 h and than to all wells (except negative controls) BrdU was added to a final concentration of 10 μM and cultures were further incubated for 24 h, fixed and processed according to the procedure recommended by manufacturer, […]

rat brain after TBI [3] = test: Programmed cell death after traumatic brain injury (TUNEL); assay type: in vivo; details: s.c., 3 days after lesion
Protocol: (§1) Male rats (wistar) (tree groups, 5 rats/group) were injected s.c with different Epo peptides (each group individually with Epo 2, Epo 3 or Epo 4) three times according to the scheme: • 1. the day before the lesion: a single injection of a peptide per animal (1 mg/100 g animal weight); • 2. the 1st day after the lesion: a single injection of a peptide per animal (1 mg/100 g animal weight): • 3. the 2nd day after the lesion: a single injection of a peptide per animal (1 mg/100 g animal weight); • 4. the 3rd day after the lesion: animals are sacrificed.
(§2) Control groups were a group (4 rats) injected with the vehicle (water) and a group (4 rats), injected with human recombinant EPO (hrEPO) in dose 50 μg/100 g rat according to the above scheme.
A traumatic brain injury (TBI) was induced by applying dry ice (−78 C) to the extracranial surface of the skull for 60 sec, which induces a focal injury in the right fronto-parietal cortex. Three days after the lesion (3 dpl) rats were deeply anesthetized with Brietal (10 mg/100 gr) and fixed by transcardial perfusion with 0.9% NaCl and 0.3% heparin, followed by Zamboni's fixative. The brains were removed, dehydrated according to the standard protocol, embedded in paraffin, and cut in 6-μm-thick frontal sections for further evaluation by immunohistochemistry and TUNEL. […]

rat brain after TBI [4] = test: Oxidative DNA damage after traumatic brain injury (8-oxoguanine immunostaining); assay type: in vivo; details: s.c., 3 days after lesion
Protocol: as §1, §2
(§3) A traumatic brain injury (TBI) was induced by applying dry ice (−78 C) to the extracranial surface of the skull for 60 sec, which induces a focal injury in the right fronto-parietal cortex. Three days after the lesion (3 dpl) rats were deeply anesthetized with Brietal (10 mg/100 gr) and fixed by transcardial perfusion with 0.9% NaCl and 0.3% heparin, followed by Zamboni's fixative. The brains were removed, dehydrated according to the standard protocol, embedded in paraffin, and cut in 6-μm-thick frontal sections for further evaluation by immunohistochemistry and TUNEL.
(§4) For immunohistochemistry the sections of the brains were incubated overnight with polyclonal rabbit anti-cow GFAP, GAP-43, 8-oxoguanine, or PSA-NCAM antibodies 1:250 (Dakopatts). The primary antibodies were detected in the sections with biotinylated secondary antibodies followed by incubation with streptavidin-biotin-peroxidase (30 min). Afterwards, the sections were incubated with biotinylated tyramide and streptavidin-peroxidase complex (NEN, Life Science Products, USA, code NEL700A) prepared following the manufacturer recommendations, and visualized with 0.015% H2O2 in DAB/TBS for 10 min.

rat brain after TBI [5] = test: Neuroplasticity and neurite outgrowth in vivo after TBI (PSA-NCAM and GAP-43 immunostaining); details: for level of PSA-NCAM staining: area adjusted to the lesion and subventricular zone; for neurite outgrowth in vivo (GAP-43 immunostaining): cortical lesion area, choroid plexus, hippocampus, hypothalamus
Protocol: as §1, §2, §3, §4

[6] = Hematocrit in rats after the brain lesion; assay type: in vivo; details: rat after brain lesion, peptide 1 mg/100 g s.c., p>0.02
Protocol: as §1, §2

[7] = target: T1, recombinant erythropoietin receptor (EPOR-Fc) (Homo sapiens, UniProt P19235); test: SPR binding of soluble EPOR-Fc to immobilized Epo 3 peptide
T1 construct: the chip was incubated with soluble recombinant EPOR-Fc under standard conditions
T1 sequence (P19235 25-250 limits assumed): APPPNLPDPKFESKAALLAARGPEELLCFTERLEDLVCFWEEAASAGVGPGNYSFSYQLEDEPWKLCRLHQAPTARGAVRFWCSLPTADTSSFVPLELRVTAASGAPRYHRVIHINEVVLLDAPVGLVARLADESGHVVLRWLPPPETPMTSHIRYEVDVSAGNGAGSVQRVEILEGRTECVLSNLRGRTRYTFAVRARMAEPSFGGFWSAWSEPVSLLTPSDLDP
Protocol: The binding of Epo 3 to EPOR-Fc was studied by SPR analysis. The Epo 3 peptide was immobilized on a chip and the chip was incubated with soluble recombinant EPOR-Fc under standard conditions. Three independent experiments were performed. […] The results of binding are shown on FIG. 16.

rat brain after TBI [8] = test: Astrocytosis after traumatic brain injury (GFAP IHC); assay type: in vivo; details: s.c., 3 days after lesion
Protocol: as §1, §2
A traumatic brain injury (TBI) was induced by applying dry ice (−78 C) to the extracranial surface of the skull for 60 sec, which induces a focal injury in the right fronto-parietal cortex. […]
For immunohistochemistry the sections of the brains were incubated overnight with polyclonal rabbit anti-cow GFAP, GAP-43, 8-oxoguanine, or PSA-NCAM antibodies 1:250 (Dakopatts). The primary antibodies were detected in the sections with biotinylated secondary antibodies followed by incubation with streptavidin-biotin-peroxidase (30 min). […]

[9] = Epo 3 ionic bonded with the chip, soluble EPOR-Fc, three experiments

| Compound | neurite outgrowth from CGN (neuritogenic activity) [1] | protection of CGN induced to undergo apoptosis (neuronal survival) (Primary cultures of CGN) | proliferation of TF-1 cells ([2]; concentration of 50 μg/ml) | stimulation of haemopoietic cell proliferation (general conclusion) [2] | TUNEL-positive apoptotic cells around the necrotic cavity (rat brain after TBI [3]) | 8-oxoguanine positive cells (oxidative DNA damage) (rat brain after TBI [4]) | level of PSA-NCAM staining (rat brain after TBI [5]) | neurite outgrowth in vivo (GAP-43 immunostaining) (rat brain after TBI [5]) | effect on the hematocrit vs control [6] | astrocytosis (reactive astrogliosis) by GFAP IHC (rat brain after TBI [8]) | other results |
| --- | --- | --- | --- | --- | --- | --- | --- | --- | --- | --- | --- |
| CC(C)C[C@H](NC(=O)CNC(=O)[C@H](CO)NC(=O)[C@@H](NC(=O)[C@H](C)NC(=O)[C@H](CCCCN)NC(=O)[C@H](CC(=O)O)NC(=O)[C@@H](NC(=O)[C@H](Cc1c[nH]cn1)NC(=O)[C@H](CC(C)C)NC(=O)[C@@H](N)CCC(N)=O)C(C)C)C(C)C)C(=O)N[C@@H](CCCNC(=N)N)C(=O)N[C@@H](CO)C(=O)N[C@@H](CC(C)C)C(=O)N[C@H](C(=O)N[C@H](C(=O)N[C@@H](CC(C)C)C(=O)N[C@@H](CC(C)C)C(=O)N[C@@H](CCCNC(=N)N)C(=O)N[C@@H](C)C(=O)O)[C@@H](C)O)[C@@H](C)O [Epo3] (H-QLHVDKAVSGLRSLTTLLRA-OH) | capable of stimulating neurite outgrowth | strongest neuroprotective effect | stimulate proliferation of TF-1 cells | most potent among them | lowest level of apoptosis | lowest number of the 8-oxoguanine positive cells | significantly increases the level of PSA-NCAM staining | stimulates neurite outgrowth | no statistically significant effect |  | neurite outgrowth from CGN (neuritogenic activity) ([1]; listed as SEQ ID NO: 3): strongly induce neurite outgrowth; effect on the hematocrit vs control ([6]; listed as Epo 3): no significant effect; binding to EPOR ([7]; Epo 3 covalently bonded to the chip): does not bind to EPOR; association rate ka [7, 9]: 2.1*10^4+−1.4*10^4; dissociation rate kd [7, 9]: 4.33*10^−5+−1.62*10^−5; kon ([7]; Epo 3 ionic bonded with the chip, soluble EPOR-Fc, three experiments, read-out: association rate ka): 21000 M⁻¹ s⁻¹; koff ([7]; Epo 3 ionic bonded with the chip, soluble EPOR-Fc, three experiments, read-out: dissociation rate kd): 4.33e-05 s⁻¹; Kd ([7]; Epo 3 ionic bonded with the chip, soluble EPOR-Fc, read-out: overall binding affinity of EPOR to Epo3): 4.48 nM |
| RVYSNFLRGKLKLYTGEA (Derived from human erythropoietin, Swiss Prot P01588) [Epo4, peptide fragment derived from human erythropoietin] | capable of stimulating neurite outgrowth | strongest neuroprotective effect | stimulate proliferation of TF-1 cells | most potent among them | lowest level of apoptosis | significantly reduced oxidative DNA damage | significantly increases the level of PSA-NCAM staining |  | no statistically significant effect | least effect | neurite outgrowth from CGN (neuritogenic activity) ([1]; listed as SEQ ID NO: 4): strongly induce neurite outgrowth |
| NENITVPDTKVNFYAWKR (Derived from human erythropoietin, Swiss Prot P01588) [Epo2, peptide fragment derived from human erythropoietin] | capable of stimulating neurite outgrowth | strongest neuroprotective effect |  |  |  | lowest number of the 8-oxoguanine positive cells |  | stimulates neurite outgrowth | no statistically significant effect | mast pronounced increase in reactive astrogliosis | neurite outgrowth from CGN (neuritogenic activity) ([1]; listed as SEQ ID NO: 2): strongly induce neurite outgrowth; proliferation of TF-1 cells ([2]; concentrations of 25 and 50 μg/ml): stimulates proliferation of TF-1 cells; effect on the hematocrit vs control ([6]; listed as Epo 2): no significant effect |
| DSRVLERYLLEAKE (Derived from human erythropoietin, Swiss Prot P01588) [Epo1, peptide fragment derived from human erythropoietin] |  |  | stimulates proliferation of TF-1 cells |  |  |  |  |  |  |  | neurite outgrowth from CGN (neuritogenic activity) ([1]; listed as SEQ ID NO: 1): do net have any neuritogenic activity; proliferation of TF-1 cells ([2]; concentration of 0.2 μg/ml): probably had a stimulatory effect |
